Holding throughout (assay type): cell-based
Assay [1] has as its target T1, Nuclear factor erythroid 2-related factor 2 (Mus musculus) (UniProt Q60795).
T1 sequence (whole entry): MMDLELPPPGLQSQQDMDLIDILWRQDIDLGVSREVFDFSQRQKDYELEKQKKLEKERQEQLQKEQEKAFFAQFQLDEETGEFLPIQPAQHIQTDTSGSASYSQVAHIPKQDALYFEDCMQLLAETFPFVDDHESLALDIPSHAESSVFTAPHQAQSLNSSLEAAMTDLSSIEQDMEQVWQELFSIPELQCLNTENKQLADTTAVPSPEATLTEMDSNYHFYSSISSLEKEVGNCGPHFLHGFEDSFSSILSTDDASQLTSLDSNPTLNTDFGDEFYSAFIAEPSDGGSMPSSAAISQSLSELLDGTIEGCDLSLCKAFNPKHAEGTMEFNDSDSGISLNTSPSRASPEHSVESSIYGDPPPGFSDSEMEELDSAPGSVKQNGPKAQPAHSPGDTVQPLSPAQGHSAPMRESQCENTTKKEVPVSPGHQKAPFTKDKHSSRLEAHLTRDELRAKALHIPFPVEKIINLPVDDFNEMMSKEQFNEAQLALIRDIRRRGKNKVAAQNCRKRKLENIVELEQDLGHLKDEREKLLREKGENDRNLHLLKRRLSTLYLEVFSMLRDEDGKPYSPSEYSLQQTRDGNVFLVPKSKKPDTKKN
The assay can be described thus: Activation of Nrf2 in mouse MIN6 cells assessed as increase in nuclear Nrf2 translocation by Western blot analysis.

Assay [2] has as its target T1, Nuclear factor erythroid 2-related factor 2 (Mus musculus). Briefly: Activation of Nrf2 in mouse MIN6 cells assessed as decrease in cytoplasmic Nrf2 fraction by Western blot analysis. For orientation: In western blotting, separated proteins are transferred to a membrane and probed.
Assay [3] shares this target. The assay can be described thus: Activation of Nrf2 in mouse MIN6 cells assessed as upregulation of human NQO1-ARE-luciferase incubated for 8 hrs by luminometric assay relative to control.
The target is the same in assay [4]. Briefly: Activation of Nrf2 in mouse MIN6 cells assessed as upregulation of GST1-ARE-luciferase incubated for 8 hrs by luminometric assay relative to control.
The target of assay [5] is T2, Keap1/Nrf2 (Homo sapiens) (UniProt Q16236+Q14145). The assay can be described thus: Inhibition of Nrf2-Keap1 (unknown origin) interaction co-expressed in HEK293T cells using D-luciferin as substrate assessed as decrease in luciferase signal intensity incubated for 24 hrs by bioluminescence-based IVIS imaging analysis. The settings on record: HEK-293T.
Assay [6] has as its target T2, Keap1/Nrf2 (Homo sapiens). The assay can be described thus: Inhibition of Nrf2-Keap1 (unknown origin) interaction co-expressed in HEK293T cells using D-luciferin as substrate assessed as decrease in luciferase signal intensity at 0.5 to 10 uM by bioluminescence-based IVIS imaging analysis. The settings on record: HEK-293T, TDE = time-dependent effect.

T2 sequence (Q14145 whole entry, looked up): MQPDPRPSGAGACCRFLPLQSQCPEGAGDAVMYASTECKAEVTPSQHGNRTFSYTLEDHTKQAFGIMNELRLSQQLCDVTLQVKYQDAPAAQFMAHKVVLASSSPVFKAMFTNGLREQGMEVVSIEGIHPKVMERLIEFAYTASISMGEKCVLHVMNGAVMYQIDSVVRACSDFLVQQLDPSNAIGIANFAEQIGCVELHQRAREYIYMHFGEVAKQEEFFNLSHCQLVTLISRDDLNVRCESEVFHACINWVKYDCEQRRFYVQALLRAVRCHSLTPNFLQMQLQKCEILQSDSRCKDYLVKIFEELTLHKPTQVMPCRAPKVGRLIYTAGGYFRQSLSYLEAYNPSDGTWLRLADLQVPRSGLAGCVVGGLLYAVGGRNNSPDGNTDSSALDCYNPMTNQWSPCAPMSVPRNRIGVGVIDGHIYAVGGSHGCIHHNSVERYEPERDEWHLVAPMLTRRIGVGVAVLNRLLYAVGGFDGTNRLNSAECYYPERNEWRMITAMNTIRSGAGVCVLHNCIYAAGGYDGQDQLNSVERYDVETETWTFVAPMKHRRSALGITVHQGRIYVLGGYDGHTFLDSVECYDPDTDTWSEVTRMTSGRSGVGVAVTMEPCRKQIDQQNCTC
T2 sequence (Q16236 whole entry, looked up): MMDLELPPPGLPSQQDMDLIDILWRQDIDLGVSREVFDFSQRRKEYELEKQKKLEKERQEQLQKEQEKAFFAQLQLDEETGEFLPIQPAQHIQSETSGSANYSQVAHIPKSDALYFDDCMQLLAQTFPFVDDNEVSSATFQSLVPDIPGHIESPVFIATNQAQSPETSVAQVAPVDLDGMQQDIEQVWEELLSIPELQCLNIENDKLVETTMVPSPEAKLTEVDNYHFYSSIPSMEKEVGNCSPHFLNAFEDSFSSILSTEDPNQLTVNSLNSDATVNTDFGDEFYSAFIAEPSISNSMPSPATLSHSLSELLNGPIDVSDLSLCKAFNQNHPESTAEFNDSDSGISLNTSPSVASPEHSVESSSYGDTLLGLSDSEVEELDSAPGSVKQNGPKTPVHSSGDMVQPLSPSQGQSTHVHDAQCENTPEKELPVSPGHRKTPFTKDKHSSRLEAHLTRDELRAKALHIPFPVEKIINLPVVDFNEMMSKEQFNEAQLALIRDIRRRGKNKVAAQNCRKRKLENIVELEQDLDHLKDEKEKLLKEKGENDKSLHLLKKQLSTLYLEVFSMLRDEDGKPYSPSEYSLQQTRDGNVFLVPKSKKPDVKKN

For the compound `COc1cc(/C=C/c2ccc(O)cc2)cc(OC)c1`, the Activity result in assay [1], in assay [2], in assay [3] and in assay [4] was “Dose-dependent effect” throughout. Besides, the fold change (FC) in assay [3] and in assay [4] was 2 each time. Also, the inhibition entry in assay [5] is “Dose-dependent effect”; in assay [6] it was “tde”.

The record behind these values is ChEMBL document CHEMBL3817774, “Pterostilbene-mediated Nrf2 activation: Mechanistic insights on Keap1:Nrf2 interface” (Bioorg Med Chem, 2016).
